Here are results for 1 substance from patent US11504425B2, “Amphiphilic oligodeoxynucleotide conjugates as adjuvant enhancers” (WAYNE STATE UNIVERSITY, priority 2019, dated 2022).

One data set concerns human PBMC. In words: Cytokine secretion by human PBMC (ELISA). The class given is cell-based. Conditions: 24 h. The method, then: Whole blood was obtained from the Red Cross, where healthy volunteers had provided informed consent to donate blood. Peripheral blood mononuclear cells (PBMC) were isolated by density gradient centrifugation using Histopaque-1077 (Sigma-Aldrich). The mononuclear cells were washed twice with cold PBS (1×) and resuspended in completed RPMI-1640 supplemented with 10% FBS and 1% penicillin/streptomycin. PBMC were seeded at 2×10^6/ml in 200 μL in a 96-well plate.
Supernatants collected from splenocytes suspension or human PBMC suspension after incubation were separately analyzed for IL-6, IL-12p40, TNF-α, and IFN-α by ELISA following manufacturer's instructions.
In general terms: In an ELISA, binding on a coated surface is turned into a signal by an enzyme label.

The subject of data set [1] is TLR7-mediated NF-κB activation in Raw-Blue reporter cells. The data set can be described thus: Raw-Blue NF-κB/SEAP reporter stimulation with TLR7 ligands. The class given is cell-based, murine. The method, then: (§1) HEK-Blue™-mTLR7, mTLR8, hTLR7, hTLR8, and RAW-Blue™ cells were purchased from InvivoGen and were used to evaluate bioactivities of lipo ODNs and TLR 7/8 ligands in vitro. All these cell lines were cultured with DMEM supplemented with 10% FBS, 1% P/S and 100 μg/mL Normocin at 37° C. with 5% CO2. […] After incubating for 24 h, SEAP levels were quantified by developing supernatants with QuantiBlue™ substrate for 1 h and reading absorption at 620 nm, following manufacturer's instructions.
Following subcutaneous injection, lipid-modified oligonucleotides efficiently accumulated in the draining lymph nodes by binding and trafficking with endogenous albumin protein (Liu et al., Nature 507, 519-522, 2014; Yu et al., Pharmaceutical Res. 35: 56, 2018). Inspired by that prior work, the current study was aimed to take advantage of lipid functionalization in other oligonucleotide-based TLR inhibitors to further expand the pool of lipo suppressive ODNs. The therapeutic efficacy of lipid-modified IRS 954 in suppressing TLR7-mediated immune activation and alleviating the severity of SLE was investigated. Imiquimod (IMQ; FIG. 1A) was first used to stimulate TLR7-mediated immune activation in Raw-Blue reporter cells. For the initial experiments, Raw Blue cells-a murine RAW 264.7 macrophage cell line which expresses secreted embryonic alkaline phosphatase (SEAP) under the control of an NF-κB and AP-1, were used. Raw Blue cells express many toll-like receptors, including TLR-7, TLR-8, and TLR-9. The immunosuppressive capability of unmodified or lipo IRS 954 was determined by quantifying the level of TLR7-induced NF-κB activation.

Another data set has as its target T1, human TLR8 (hTLR8) (Homo sapiens, UniProt Q9NR97).
T1 construct: host or cells: HEK-Blue-hTLR8 (HEK293)
T1 sequence (Q9NR97 27-1041): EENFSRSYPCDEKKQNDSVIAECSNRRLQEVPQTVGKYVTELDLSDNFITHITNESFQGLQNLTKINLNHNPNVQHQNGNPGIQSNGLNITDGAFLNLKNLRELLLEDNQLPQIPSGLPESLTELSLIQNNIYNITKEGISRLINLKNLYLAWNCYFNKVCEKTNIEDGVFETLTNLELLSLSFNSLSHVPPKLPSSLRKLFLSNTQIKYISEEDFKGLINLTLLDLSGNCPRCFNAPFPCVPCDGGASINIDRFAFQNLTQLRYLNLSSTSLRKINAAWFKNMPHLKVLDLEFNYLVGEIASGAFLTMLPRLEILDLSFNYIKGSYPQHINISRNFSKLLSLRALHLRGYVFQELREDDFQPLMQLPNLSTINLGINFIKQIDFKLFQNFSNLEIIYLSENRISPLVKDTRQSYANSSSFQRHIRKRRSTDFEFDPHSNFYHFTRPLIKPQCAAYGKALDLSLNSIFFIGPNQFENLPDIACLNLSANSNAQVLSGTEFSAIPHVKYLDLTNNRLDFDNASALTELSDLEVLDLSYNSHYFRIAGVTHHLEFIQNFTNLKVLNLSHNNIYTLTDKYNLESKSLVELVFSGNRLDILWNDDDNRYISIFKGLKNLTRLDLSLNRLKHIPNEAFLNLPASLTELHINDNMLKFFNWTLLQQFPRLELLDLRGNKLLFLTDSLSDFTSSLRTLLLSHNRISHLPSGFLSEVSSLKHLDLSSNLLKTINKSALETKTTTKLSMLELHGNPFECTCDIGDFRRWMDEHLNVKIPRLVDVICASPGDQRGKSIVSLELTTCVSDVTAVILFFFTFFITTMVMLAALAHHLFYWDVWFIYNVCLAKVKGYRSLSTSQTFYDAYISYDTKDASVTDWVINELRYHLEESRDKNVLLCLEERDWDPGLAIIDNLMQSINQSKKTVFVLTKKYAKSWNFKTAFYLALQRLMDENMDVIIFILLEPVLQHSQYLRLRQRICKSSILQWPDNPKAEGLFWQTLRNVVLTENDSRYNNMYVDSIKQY
The data set can be described thus: HEK hTLR8 reporter cells NF-κB/SEAP. The class given is cell-based. The conditions noted are these: 1 μg/ml or indicated concentrations TLR8-506 + 1 μM ODN, 24 h. On the procedure: as §1
HEK293 cells transfected with human TLR7 or 8 were used. The cells were stimulated with IMQ in the presence of several inhibitory oligonucleotides reported in the literature. […] In contrast, all the unmodified ODNs maintained their inhibitory function, reducing the NF-κB secretion to basal levels (FIG. 8A). We then plotted the IMQ dose response curve in human TLR-7 transfected HEK293 cells.

Another data set has as its system Raw-Blue reporter cells. In words: Cellular uptake and confocal imaging in Raw-Blue cells. The class given is cell-based, murine. The method, then: DC 2.4 cells were cultured with RPMI-1640 supplemented with 10% FBS and 1% P/S; Raw-Blue cells were cultured as previously described. […] After incubation, cells were washed twice with 1×PBS by centrifuge at 800×g for 5 min prior to flow cytometry quantification. To visualize in vitro cellular uptake, DC 2.4 cells or Raw-Blue cells were cultured and incubated under the same experimental conditions and were subjected to confocal imaging by Zeiss LSM 510 microscope. […] Inhibitors: 5 μg/mL Filipin; 50 μM EIPA; 300 mM sucrose were tested.

With 5′-TTTTTTTTTTTTTTTTTTTT-3′ [T20], the IFN-α production entry in the data set on human PBMC (CL264 + ODN) is “completely abrogated IFN-α production”. Further, the IL-12 production entry with human PBMC (TLR8-506 + ODN) was “able to augment the IL-12 production”. Besides, in data set [1] (2 μM IMQ + 1 μM ODN, 24 h), the “lowering of IMQ-induced NF-κB activation” value was 2 folds. Further, in data set [1] (2 μM IMQ + 5 μM T20, 24 h), the “IMQ-elicited activation with high-dose ODN” value is “significantly enhanced inhibition in IMQ-elicited activation”. Moreover, the “overall NF-κB stimulation by IMQ, CL075, R848 in the presence of the ODN” value in data set [1] (ligands at indicated concentrations + 1 μM ODN, 24 h) was “suppressive effect on all the TLR ligands tested”. Further, the “TLR8-506 stimulation of hTLR8 cells in the presence of the ODN” value with human TLR8 (hTLR8) is “enhanced the stimulation of TLR8-506”. Moreover, in the data set on Raw-Blue reporter cells (1 μM FAM-labeled ODN, FBS-supplemented and FBS-free, LysoTracker Red), the colocalization with lysosomes entry is on record as “colocalized with lysosomes regardless of the presence of FBS”. In addition, the “effect on cellular uptake of FITC-labeled IMDQ” value with Raw-Blue reporter cells (2 μM FITC-IMDQ + 1 μM ODN) is reported as “neither T20 nor lipo T20 increased cellular uptake”.
